What was measured:
Assay type in all cases: functional
Macrophage [1] = test: Antiinflammatory activity in Escherichia coli O6:K2:H1-induced human M2 macrophage assessed as change in 5-HETE level at 1 uM preincubated for 10 mins followed by Escherichia coli O6:K2:H1-stimulation and measured after 180 mins by UPLC-MS/MS analysis relative to control
Macrophage [2] = test: Antiinflammatory activity in Escherichia coli O6:K2:H1-induced human M2 macrophage assessed as change in 12-HEPE level at 1 uM preincubated for 10 mins followed by Escherichia coli O6:K2:H1-stimulation and measured after 180 mins by UPLC-MS/MS analysis relative to control
Macrophage [3] = test: Antiinflammatory activity in Escherichia coli O6:K2:H1-induced human M1 macrophage assessed as change in 5.15-dlHETE level at 1 uM preincubated for 10 mins followed by Escherichia coli O6:K2:H1-stimulation and measured after 180 mins by UPLC-MS/MS analysis relative to control
Macrophage [4] = test: Antiinflammatory activity in Escherichia coli O6:K2:H1-induced human M2 macrophage assessed as change in 15-HETE level at 1 uM preincubated for 10 mins followed by Escherichia coli O6:K2:H1-stimulation and measured after 180 mins by UPLC-MS/MS analysis relative to control
Macrophage [5] = test: Antiinflammatory activity in Escherichia coli O6:K2:H1-induced human M1 macrophage assessed as change in […] level at 1 uM preincubated for 10 mins followed by Escherichia coli O6:K2:H1-stimulation and measured after 180 mins by UPLC-MS/MS analysis relative to control
Macrophage [6] = test: Antiinflammatory activity in Escherichia coli O6:K2:H1-induced human M2 macrophage assessed as change in 15-HEPE level at 1 uM preincubated for 10 mins followed by Escherichia coli O6:K2:H1-stimulation and measured after 180 mins by UPLC-MS/MS analysis relative to control
Macrophage [7] = test: Antiinflammatory activity in Escherichia coli O6:K2:H1-induced human M1 macrophage assessed as change in PGE2 level at 1 uM preincubated for 10 mins followed by Escherichia coli O6:K2:H1-stimulation and measured after 180 mins by UPLC-MS/MS analysis relative to control
Macrophage [8] = test: Antiinflammatory activity in Escherichia coli O6:K2:H1-induced human M1 macrophage assessed as change in 15-HEPE level at 1 uM preincubated for 10 mins followed by Escherichia coli O6:K2:H1-stimulation and measured after 180 mins by UPLC-MS/MS analysis relative to control
Macrophage [9] = test: Antiinflammatory activity in Escherichia coli O6:K2:H1-induced human M1 macrophage assessed as change in 7-HDHA level at 10 uM preincubated for 10 mins followed by Escherichia coli O6:K2:H1-stimulation and measured after 180 mins by UPLC-MS/MS analysis relative to control
Macrophage [10] = test: Antiinflammatory activity in Escherichia coli O6:K2:H1-induced human M1 macrophage assessed as change in PGD2 level at 1 uM preincubated for 10 mins followed by Escherichia coli O6:K2:H1-stimulation and measured after 180 mins by UPLC-MS/MS analysis relative to control
Macrophage [11] = test: Antiinflammatory activity in Escherichia coli O6:K2:H1-induced human M2 macrophage assessed as change in LTB4 level at 10 uM preincubated for 10 mins followed by Escherichia coli O6:K2:H1-stimulation and measured after 180 mins by UPLC-MS/MS analysis relative to control
Macrophage [12] = test: Antiinflammatory activity in Escherichia coli O6:K2:H1-induced human M2 macrophage assessed as change in PGF2alpha level at 1 uM preincubated for 10 mins followed by Escherichia coli O6:K2:H1-stimulation and measured after 180 mins by UPLC-MS/MS analysis relative to control
Macrophage [13] = test: Antiinflammatory activity in Escherichia coli O6:K2:H1-induced human M1 macrophage assessed as change in 17-HDHA level at 1 uM preincubated for 10 mins followed by Escherichia coli O6:K2:H1-stimulation and measured after 180 mins by UPLC-MS/MS analysis relative to control
Macrophage [14] = test: Antiinflammatory activity in Escherichia coli O6:K2:H1-induced human M1 macrophage assessed as change in 17-HDHA level at 10 uM preincubated for 10 mins followed by Escherichia coli O6:K2:H1-stimulation and measured after 180 mins by UPLC-MS/MS analysis relative to control
Macrophage [15] = test: Antiinflammatory activity in Escherichia coli O6:K2:H1-induced human M1 macrophage assessed as change in 14-HDHA level at 1 uM preincubated for 10 mins followed by Escherichia coli O6:K2:H1-stimulation and measured after 180 mins by UPLC-MS/MS analysis relative to control
Macrophage [16] = test: Antiinflammatory activity in Escherichia coli O6:K2:H1-induced human M2 macrophage assessed as change in […] level at 1 uM preincubated for 10 mins followed by Escherichia coli O6:K2:H1-stimulation and measured after 180 mins by UPLC-MS/MS analysis relative to control
Macrophage [17] = test: Antiinflammatory activity in Escherichia coli O6:K2:H1-induced human M2 macrophage assessed as change in PGD2 level at 1 uM preincubated for 10 mins followed by Escherichia coli O6:K2:H1-stimulation and measured after 180 mins by UPLC-MS/MS analysis relative to control
Macrophage [18] = test: Antiinflammatory activity in Escherichia coli O6:K2:H1-induced human M1 macrophage assessed as change in PGD2 level at 10 uM preincubated for 10 mins followed by Escherichia coli O6:K2:H1-stimulation and measured after 180 mins by UPLC-MS/MS analysis relative to control
Macrophage [19] = test: Antiinflammatory activity in Escherichia coli O6:K2:H1-induced human M1 macrophage assessed as change in 15-HETE level at 1 uM preincubated for 10 mins followed by Escherichia coli O6:K2:H1-stimulation and measured after 180 mins by UPLC-MS/MS analysis relative to control
Macrophage [20] = test: Antiinflammatory activity in Escherichia coli O6:K2:H1-induced human M1 macrophage assessed as change in 5-HEPE level at 1 uM preincubated for 10 mins followed by Escherichia coli O6:K2:H1-stimulation and measured after 180 mins by UPLC-MS/MS analysis relative to control
Macrophage [21] = test: Antiinflammatory activity in Escherichia coli O6:K2:H1-induced human M1 macrophage assessed as change in 12-HETE level at 1 uM preincubated for 10 mins followed by Escherichia coli O6:K2:H1-stimulation and measured after 180 mins by UPLC-MS/MS analysis relative to control
Macrophage [22] = test: Antiinflammatory activity in Escherichia coli O6:K2:H1-induced human M1 macrophage assessed as change in 5-HETE level at 1 uM preincubated for 10 mins followed by Escherichia coli O6:K2:H1-stimulation and measured after 180 mins by UPLC-MS/MS analysis relative to control
Macrophage [23] = test: Antiinflammatory activity in Escherichia coli O6:K2:H1-induced human M1 macrophage assessed as change in 12-HETE level at 10 uM preincubated for 10 mins followed by Escherichia coli O6:K2:H1-stimulation and measured after 180 mins by UPLC-MS/MS analysis relative to control

In the case of `O=C(Cc1ccc(Oc2nc3ccccc3s2)cc1F)NCCc1ccc(F)cc1`, the Activity (Macrophage [1]) was 68%, the Activity (Macrophage [2]) was 78% and the Activity (Macrophage [3]) was 152%. The Activity (Macrophage [4]) was 82%, the Activity (Macrophage [5]) was 134% and the Activity (Macrophage [6]) was 81%. The Activity (Macrophage [7]) was 109%, the Activity (Macrophage [8]) was 97% and the Activity (Macrophage [9]) was 66%. It also gave an Activity (Macrophage [10]) of 127%, an Activity (Macrophage [11]) of 23% and an Activity (Macrophage [12]) of 63%. The Activity (Macrophage [13]) was 97%, the Activity (Macrophage [14]) was 269% and the Activity (Macrophage [15]) was 110%. It also gave an Activity (Macrophage [16]) of 64%, an Activity (Macrophage [17]) of 63% and an Activity (Macrophage [18]) of 97%. The Activity (Macrophage [19]) was 102%, the Activity (Macrophage [20]) was 102% and the Activity (Macrophage [21]) was 99%. For the same compound, the Activity (Macrophage [22]) was 164% and the Activity (Macrophage [23]) was 131%.

From ChEMBL document CHEMBL4342480, “Design of Dual Inhibitors of Soluble Epoxide Hydrolase and LTA4 Hydrolase” (ACS Med Chem Lett, 2020)
